This is an account of results in patent US11897862B2 (Gilead Sciences, Inc., priority 2022, dated 2024).

Assay type in all cases: cell-based
The target in assay [1] is T1, IKZF2 (Homo sapiens, UniProt Q96SW2+Q9UKS7). Briefly: Human whole blood IKZF2 degradation (flow cytometry, CD4/CD25/Foxp3+ Treg cells). Also on record: endogenous in cells. The following applies: 24 hrs incubation, IKZF2 MFI in CD4/CD25/Foxp3+ Treg cells, flow cytometry; for DC50: read-out: IKZF2 EC50. In a few lines:
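Fresh healthy-donor human whole blood stimulated with CD3/CD28 activator and serially diluted compound for 24 hrs at 37° C. IKZF2 MFI in CD4/CD25/Foxp3+ Tregs (IKZF1 MFI in CD4+ T cells) measured by flow cytometry after RBC lysis, fixation, permeabilization. EC50 and Dmax versus DMSO wells.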
Target sequence in this assay (Q9UKS7 whole entry): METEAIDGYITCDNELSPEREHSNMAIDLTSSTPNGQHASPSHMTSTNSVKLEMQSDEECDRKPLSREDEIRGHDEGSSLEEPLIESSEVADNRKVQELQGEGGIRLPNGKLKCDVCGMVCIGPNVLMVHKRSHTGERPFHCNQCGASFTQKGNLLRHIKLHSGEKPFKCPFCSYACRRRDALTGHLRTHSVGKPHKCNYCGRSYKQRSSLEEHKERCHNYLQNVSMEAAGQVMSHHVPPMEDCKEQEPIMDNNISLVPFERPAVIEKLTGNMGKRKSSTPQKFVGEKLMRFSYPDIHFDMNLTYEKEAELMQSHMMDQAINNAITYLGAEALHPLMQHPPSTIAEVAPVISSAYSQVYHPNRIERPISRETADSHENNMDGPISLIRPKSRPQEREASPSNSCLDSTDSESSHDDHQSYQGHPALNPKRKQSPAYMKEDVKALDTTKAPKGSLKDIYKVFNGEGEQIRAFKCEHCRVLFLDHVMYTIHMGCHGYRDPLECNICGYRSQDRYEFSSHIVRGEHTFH
Target sequence in this assay (Q96SW2 whole entry): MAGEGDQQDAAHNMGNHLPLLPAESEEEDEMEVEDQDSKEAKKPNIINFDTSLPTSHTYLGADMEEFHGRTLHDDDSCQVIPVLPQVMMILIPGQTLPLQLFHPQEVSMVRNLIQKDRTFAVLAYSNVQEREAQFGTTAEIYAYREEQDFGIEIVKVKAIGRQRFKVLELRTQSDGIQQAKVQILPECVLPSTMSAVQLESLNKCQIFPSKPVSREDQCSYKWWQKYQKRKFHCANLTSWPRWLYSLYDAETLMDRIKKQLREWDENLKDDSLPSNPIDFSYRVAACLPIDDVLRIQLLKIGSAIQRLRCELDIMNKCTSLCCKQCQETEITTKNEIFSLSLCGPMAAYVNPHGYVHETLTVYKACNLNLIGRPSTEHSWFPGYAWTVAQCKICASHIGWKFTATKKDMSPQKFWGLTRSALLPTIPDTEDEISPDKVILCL
Target sequence in this assay (Q16531 whole entry partner): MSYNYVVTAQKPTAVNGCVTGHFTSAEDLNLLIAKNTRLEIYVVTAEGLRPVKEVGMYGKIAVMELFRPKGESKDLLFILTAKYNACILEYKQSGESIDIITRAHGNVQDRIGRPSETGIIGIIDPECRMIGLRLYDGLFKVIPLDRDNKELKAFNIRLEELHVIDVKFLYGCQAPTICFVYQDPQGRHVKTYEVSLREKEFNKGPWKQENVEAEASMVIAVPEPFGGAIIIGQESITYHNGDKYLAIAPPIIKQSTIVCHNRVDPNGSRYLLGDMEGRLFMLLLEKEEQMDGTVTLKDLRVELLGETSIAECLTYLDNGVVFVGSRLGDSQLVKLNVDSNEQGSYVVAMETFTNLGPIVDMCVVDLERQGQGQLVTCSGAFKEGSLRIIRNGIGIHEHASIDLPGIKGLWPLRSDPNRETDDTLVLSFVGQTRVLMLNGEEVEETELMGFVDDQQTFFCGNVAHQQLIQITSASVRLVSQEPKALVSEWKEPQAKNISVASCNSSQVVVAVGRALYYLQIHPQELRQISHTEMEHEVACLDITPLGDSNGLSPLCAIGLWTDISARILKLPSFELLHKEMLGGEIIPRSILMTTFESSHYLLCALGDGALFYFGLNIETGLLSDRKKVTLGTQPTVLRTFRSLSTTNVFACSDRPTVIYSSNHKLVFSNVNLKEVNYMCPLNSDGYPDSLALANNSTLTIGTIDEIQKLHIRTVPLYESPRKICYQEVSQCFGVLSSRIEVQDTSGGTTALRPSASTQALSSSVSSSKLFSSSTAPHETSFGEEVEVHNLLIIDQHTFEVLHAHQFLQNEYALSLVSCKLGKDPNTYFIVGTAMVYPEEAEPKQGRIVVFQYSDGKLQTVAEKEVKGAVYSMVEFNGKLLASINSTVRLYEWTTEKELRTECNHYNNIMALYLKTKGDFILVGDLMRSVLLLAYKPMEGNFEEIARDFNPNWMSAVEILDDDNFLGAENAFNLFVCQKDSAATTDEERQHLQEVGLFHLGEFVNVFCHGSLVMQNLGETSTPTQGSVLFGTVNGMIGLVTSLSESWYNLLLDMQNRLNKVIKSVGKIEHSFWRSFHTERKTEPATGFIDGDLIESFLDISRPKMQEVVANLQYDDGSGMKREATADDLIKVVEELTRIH
(In general: In flow cytometry, cells or beads pass a laser one at a time.)

In another assay the target is T2, IKZF1 (Homo sapiens, UniProt Q13422+Q96SW2).
T2 construct: expressed in transfected cells
Briefly: HEK293 HiBiT in vitro degradation of IKZF1. The following applies: for Dmax: HEK293, HEK293 HiBiT; for DC50: 18-24 hr incubation, normalized to DMSO control, read-out: IKZF1 EC50. The essentials:
(§1)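 Read-out: Nano-Glo lytic HiBiT luminescence after 18-24 h compound exposure at 37 °C, fitted to EC50 and Dmax. Cells were Flp-In T-REx HEK293 expressing linker-HiBiT fused to the C-terminus of each target, doxycycline-induced ([…] final) overnight beforehand.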
In general terms: The HiBiT peptide binds its large partner to form an active luciferase.

Assay [2] deals with T1, IKZF2. Briefly: HEK293 HiBiT in vitro degradation of IKZF2. Also on record: expressed in transfected cells. The following applies: for Dmax: HEK293, HEK293 HiBiT; for Dmax / IKZF2 Dmax: maximum degradation at the highest concentration tested; for DC50 / IKZF2 Dmax: HEK293 HiBiT; for DC50: 18-24 hr incubation, normalized to DMSO control, read-out: IKZF2 EC50. The essentials: as §1
Target sequence in this assay (Q9UKS7 1-500 isoform Q9UKS7-2): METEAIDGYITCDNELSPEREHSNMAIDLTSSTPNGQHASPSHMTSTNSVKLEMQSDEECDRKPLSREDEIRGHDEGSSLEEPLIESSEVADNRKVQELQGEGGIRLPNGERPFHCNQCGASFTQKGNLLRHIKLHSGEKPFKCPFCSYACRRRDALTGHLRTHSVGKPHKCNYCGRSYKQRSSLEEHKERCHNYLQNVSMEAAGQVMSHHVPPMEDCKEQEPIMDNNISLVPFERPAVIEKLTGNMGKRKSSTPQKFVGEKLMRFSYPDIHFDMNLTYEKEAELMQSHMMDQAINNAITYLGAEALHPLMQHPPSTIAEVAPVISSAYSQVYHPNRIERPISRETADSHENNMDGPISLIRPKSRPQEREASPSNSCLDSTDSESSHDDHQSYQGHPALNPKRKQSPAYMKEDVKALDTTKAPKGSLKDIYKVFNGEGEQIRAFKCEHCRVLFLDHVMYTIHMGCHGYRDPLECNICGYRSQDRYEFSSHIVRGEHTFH
Target sequence in this assay (Q96SW2 whole entry): as the sequence (Q96SW2 whole entry) above
Target sequence in this assay (Q16531 whole entry partner): as the sequence (Q16531 whole entry partner) above

Where [3] appears, read: maximum degradation at the highest concentration tested.

T2 sequence (Q13422 whole entry): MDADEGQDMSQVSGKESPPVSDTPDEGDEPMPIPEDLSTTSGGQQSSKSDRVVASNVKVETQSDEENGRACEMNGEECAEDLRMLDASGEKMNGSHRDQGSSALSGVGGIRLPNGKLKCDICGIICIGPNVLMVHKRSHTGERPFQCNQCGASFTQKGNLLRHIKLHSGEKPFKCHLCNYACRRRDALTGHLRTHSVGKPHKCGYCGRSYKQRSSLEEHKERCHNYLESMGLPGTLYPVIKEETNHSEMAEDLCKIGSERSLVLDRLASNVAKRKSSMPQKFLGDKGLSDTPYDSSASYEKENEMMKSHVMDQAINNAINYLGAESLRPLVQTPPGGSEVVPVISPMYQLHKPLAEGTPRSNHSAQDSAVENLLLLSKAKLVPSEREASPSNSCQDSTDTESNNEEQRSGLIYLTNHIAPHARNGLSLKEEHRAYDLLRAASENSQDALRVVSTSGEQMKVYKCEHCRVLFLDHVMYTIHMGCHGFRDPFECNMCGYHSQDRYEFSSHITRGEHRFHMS
T2 sequence (Q96SW2 whole entry): as the sequence (Q96SW2 whole entry) above
T2 sequence (Q16531 whole entry partner): as the sequence (Q16531 whole entry partner) above

`COCC1CCC(N[C@H]2CCCC[C@@H]2Cc2ccc3c(c2)CN(C2CCC(=O)NC2=O)C3=O)CC1` (single isomer, unassigned) [Example 251]: the greatest degradation seen (Dmax) on IKZF2 [1] worked out at 98%; on IKZF1 (setting [3]), 35%; on IKZF2 [2] it was 98%. Besides, the DC50 came out at 2 nM on IKZF2 [1], 213 nM at IKZF1 (HEK293 HiBiT) and 1 nM on IKZF2 [2].
As for `O=C1CCC(N2Cc3cc(C[C@H]4CCCC[C@@H]4NC4CC5CC5C4)ccc3C2=O)C(=O)N1` (single isomer, unassigned) [Example 266], the Dmax on IKZF2 [1] was found to be 98%; at IKZF1 (setting [3]), 32%; at IKZF2 [2] it was 97%. Further, the DC50 at IKZF2 [1] is 6 nM; on IKZF1 (HEK293 HiBiT), 55 nM; at IKZF2 [2] it was 4 nM.
Regarding `COC1CCC(N[C@H]2CCCO[C@@H]2Cc2ccc3c(c2F)CN(C2CCC(=O)NC2=O)C3=O)CC1` (stereo partly drawn) [Example 159], the Dmax worked out at 94% at IKZF2 [1] and 100% at IKZF2 [2]. For the same molecule, the DC50 is 5 nM on IKZF2 [1], more than 1000 nM at IKZF1 (HEK293 HiBiT) and 6 nM on IKZF2 [2].
Regarding `O=C1CCC(N2Cc3cc(C[C@H]4CCCC[C@@H]4NC4CCCCCC4)ccc3C2=O)C(=O)N1` (stereo partly drawn) [Example 196], the maximal degradation (Dmax) worked out at 98% on IKZF2 [1], 23% on IKZF1 (setting [3]) and 97% on IKZF2 [2]. Besides, the DC50 on IKZF2 [1] is 3 nM; at IKZF1 (HEK293 HiBiT), 60 nM; at IKZF2 [2], 3 nM.
As for `CC(N[C@H]1CCCC[C@@H]1Cc1ccc2c(c1)CN(C1CCC(=O)NC1=O)C2=O)C1CCC1` (stereo partly drawn) [Example 103], the Dmax at IKZF2 [1] stood at 96%; on IKZF2 [2], 95%. In addition, the DC50 is 4 nM on IKZF2 [1], more than 1000 nM at IKZF1 (HEK293 HiBiT) and 3 nM at IKZF2 [2].
`COC1CCC(N[C@H]2CCCC[C@@H]2Cc2ccc3c(c2)CN(C2CCC(=O)NC2=O)C3=O)CC1` (single isomer, unassigned) [Example 277]: the figures for the Dmax on IKZF2 [1], at IKZF1 (setting [3]) and at IKZF2 [2] were 95%, 37% and 98%, respectively. The figures for the DC50 on IKZF2 [1], on IKZF1 (HEK293 HiBiT) and at IKZF2 [2] were 2 nM, 114 nM and 3 nM, respectively.
`CC(N[C@H]1CCCC[C@@H]1Cc1ccc2c(c1)CN(C1CCC(=O)NC1=O)C2=O)C1CC(F)(F)C1` (single isomer, unassigned) [Example 137]: the figures for the “IKZF2 Dmax” value on IKZF2 [1] and on IKZF2 [2] were 99% and 97%, respectively. Further, the DC50 on IKZF2 [1] is 2 nM; at IKZF1 (HEK293 HiBiT), 54 nM; at IKZF2 [2] it was 1 nM. At IKZF1 (setting [3]), this molecule returned a Dmax of 34%.
Turning to `O=C1CCC(N2Cc3cc(C[C@H]4CCCC[C@@H]4NC4CC5(CCC(F)(F)CC5)C4)ccc3C2=O)C(=O)N1` (stereo partly drawn) [Example 142], the Dmax on IKZF2 [1] came to 94%; on IKZF1 (setting [3]), 33%; at IKZF2 [2], 95%. For the same molecule, the results for the DC50 at IKZF2 [1], on IKZF1 (HEK293 HiBiT) and on IKZF2 [2] were 5 nM, 74 nM and 5 nM, respectively.
Regarding `CCC(CC)N[C@H]1CCCC[C@@H]1Cc1ccc2c(c1)CN(C1CCC(=O)NC1=O)C2=O` (stereo partly drawn) [Example 23, 3-(1-oxo-5-(((1R,2S)-2-(pentan-3-ylamino)cyclohexyl)methyl)isoindolin-2-yl)piperidine-2,6-dione], the greatest degradation seen (Dmax) was found to be 98% at IKZF2 [1], 14% on IKZF1 (setting [3]) and 95% on IKZF2 [2]. For the same molecule, the DC50 worked out at 6 nM on IKZF2 [1], 374 nM at IKZF1 (HEK293 HiBiT) and 6 nM on IKZF2 [2].
For the molecule `O=C1CCC(N2Cc3cc(C[C@H]4CCCC[C@@H]4NCC4CC(F)(F)C4)ccc3C2=O)C(=O)N1` (stereo partly drawn) [Example 24, 3-(5-(((1R,2S)-2-(((3,3-difluorocyclobutyl)methyl)amino)cyclohexyl)methyl)-1-oxoisoindolin-2-yl)piperidine-2,6-dione], the figures for the Dmax at IKZF2 [1], at IKZF1 (setting [3]) and on IKZF2 [2] were 89%, 25% and 91%, respectively. Moreover, the DC50 on IKZF2 [1] was found to be 8 nM; at IKZF1 (HEK293 HiBiT), 345 nM; at IKZF2 [2], 10 nM.
`O=C1CCC(N2Cc3c(ccc(C[C@H]4CCCC[C@@H]4NCC4CCOCC4)c3F)C2=O)C(=O)N1` (stereo partly drawn) [Example 115]: the Dmax on IKZF2 [1] worked out at 90%; at IKZF1 (setting [3]) it was 37%; on IKZF2 [2] it was 96%. The DC50 on IKZF2 [1] came out at 6 nM; on IKZF1 (HEK293 HiBiT), 78 nM; on IKZF2 [2], 8 nM.
Consider `CC1(C)CC(N[C@H]2CCCC[C@@H]2Cc2ccc3c(c2)CN(C2CCC(=O)NC2=O)C3=O)CC(C)(C)O1` (stereo partly drawn) [Example 208], for which the Dmax at IKZF2 [1] came to 97%; at IKZF1 (setting [3]), 26%; on IKZF2 [2], 98%. Further, the figures for the DC50 on IKZF2 [1], on IKZF1 (HEK293 HiBiT) and on IKZF2 [2] were 3 nM, 76 nM and 2 nM, respectively.
In the case of `CC1(C)CC(N[C@H]2CCCC[C@@H]2Cc2ccc3c(c2)CN(C2CCC(=O)NC2=O)C3=O)CCO1` (stereo partly drawn) [Example 110], the “IKZF2 Dmax” value stood at 98% on IKZF2 [1] and 96% at IKZF2 [2]. Besides, the DC50 at IKZF2 [1] came out at 3 nM; at IKZF1 (HEK293 HiBiT) it was 163 nM; at IKZF2 [2] it was 5 nM. For the same molecule, at IKZF1 (HEK293 HiBiT, maximum degradation at the highest concentration tested), the “IKZF1 Dmax” value was determined as 32%.
As for `CCC(C)N[C@H]1CCCC[C@@H]1Cc1ccc2c(c1)CN(C1CCC(=O)NC1=O)C2=O` (single isomer, unassigned) [Example 299], the figures for the maximal degradation (Dmax) on IKZF2 [1] and on IKZF2 [2] were 96% and 98%, respectively. Further, the results for the DC50 on IKZF2 [1], on IKZF1 (HEK293 HiBiT) and on IKZF2 [2] were 2 nM, more than 1000 nM and 2 nM, respectively.
With `CC(C)CCN[C@H]1CCCC[C@@H]1Cc1ccc2c(c1)CN(C1CCC(=O)NC1=O)C2=O` (stereo partly drawn) [Example 129], the maximal degradation (Dmax) is 91% at IKZF2 [1], 25% at IKZF1 (setting [3]) and 95% at IKZF2 [2]. For the same molecule, the values for the DC50 at IKZF2 [1], at IKZF1 (HEK293 HiBiT) and on IKZF2 [2] were 9 nM, 93 nM and 13 nM, respectively.

One may read the Dmax as the largest share of the target that was removed. A lower Dmax goes with shallow degradation.
